Reference: PMC11714206, “Massively Parallel Screening of Toll/Interleukin‐1 Receptor (TIR)‐Derived Peptides Reveals Multiple Toll‐Like Receptors (TLRs)‐Targeting Immunomodulatory Peptides” (Advanced Science, 2024)
Values joined by “and” are separate entries in the source; they are usually repeats but may differ in a detail not shown here. Equal values may be shown once. Blank lines part the entries; values can stand above or below the sequence they belong to.

Molecular target: T1, MyD88^TIR (Homo sapiens, UniProt Q99836)
T1 construct: MyD88 (residues 148–296); 6xHis; made in house; host or cells: E. coli BL21 (DE3)
Experiment: T‐Surf phage library (P8 and P3) selection against MyD88^TIR, four rounds, NGS read counts
Format: binding
Details: for P3_MyD88 Rank (after) / P3_MyD88 Rank (before): P3 library; for Population: 4th round of selection against MyD88 TIR, share of NGS reads; for P8_MyD88 Rank (after) / P8_MyD88 Rank (before): P8 library
Method: T‐Surf libraries were screened against the immobilized TIR domains of two major human TLR adaptor proteins, MAL^TIR and MyD88^TIR, allowing cross‐species selection of TIR‐binding motifs with 190 946 TIR‐derived peptides in a single binding assay (Scheme 1). Enriched phage pools from the fourth round of selection were analyzed using NGS after barcoding the peptide‐coding regions of the phage pools.
Phage display screening was performed by coating two wells of a 96‐well plate (Maxisorp, Thermo Fisher Scientific) with 100 µL of 5 µg mL^−1 TIR domains overnight; then, the coated wells were blocked with 200 µL of blocking buffer (0.2% BSA in PBS) and set aside for 1 h at 4 °C with gentle shaking. Next, 100 µL of the phage library was added to the wells and incubated for 1 h at room temperature (RT; 20 – 22 °C) with gentle shaking. The plate was washed four times with PBS containing 0.5% Tween‐20; the bound phages were eluted by adding 100 µL of 100 mM HCl to each well. The elute was neutralized with 10 µL of 1.0 M Tris‐HCl (pH 11.0). E. coli TG1 cells were grown to the log phase (A600 = ≈0.6), and 1 mL of the culture was incubated with 100 µL of the eluted phages for 30 min at 37 °C, with shaking at 200 rpm. Next, 1 µL of M13KO7 helper phages was added, followed by incubation for 45 min at 37 °C, with shaking. Subsequently, the cells were transferred to 25 mL of 2× yeast extract tryptone/carbenicillin/kanamycin medium and incubated overnight at 37 °C with shaking at 200 rpm. The amplified phages were precipitated with 20% PEG‐8000/2.5 M NaCl to be used for the next round of selection.
The naïve T‐Surf libraries in P8 and P3 and the enriched phage pools after four rounds were barcoded for NGS as previously described.^[ [59] ^] Briefly, 5 µL of the phage pool was used as a template for 20 cycles of a 50 µL PCR reaction using […] each of forward and reverse barcoded primers and PrimeSTAR Max DNA Polymerase. The PCR products were purified using Expin Gel SV (GeneAll). The NGS samples were quantified using qPCR, following the qPCR Quantification Protocol Guide (KAPA Library Quantification kits for Illumina Sequencing Platform), and qualified using the TapeStation High Sensitivity D1000 ScreenTape (Agilent Technologies). The indexed libraries were further sequenced by Macrogen (Seoul, Republic of Korea) using the NovaSeq platform (Illumina) with 100 bp paired‐end reads. The reads were demultiplexed by barcodes and filtered for an average Phred quality score of at least 30, followed by trimming the flanking consensus sequences using Cutadapt (version 2.3). Peptide sequence populations were analyzed according to the read counts.

[1] = P3_MyD88: rank by count after grouping
[2] = P3_MyD88: rank by count before grouping
[3] = selection against MyD88 TIR, rank by count after grouping
[4] = selection against MyD88 TIR, rank by count before grouping
[5] = P3_MyD88 pool: P3 T-Surf phage library
[6] = 4R selection against MyD88, rank after grouping
[7] = 4R selection against MyD88, rank before grouping
[8] = selection against MyD88, rank by count after grouping
[9] = selection against MyD88, rank by count before grouping
[10] = P8_MyD88: rank by count after grouping
[11] = P8_MyD88: rank by count before grouping
[12] = selection against MyD88, rank after grouping
[13] = selection against MyD88, rank before grouping
[14] = P8_MyD88 pool: P8 T-Surf phage library

T1 sequence (Q99836 148-296): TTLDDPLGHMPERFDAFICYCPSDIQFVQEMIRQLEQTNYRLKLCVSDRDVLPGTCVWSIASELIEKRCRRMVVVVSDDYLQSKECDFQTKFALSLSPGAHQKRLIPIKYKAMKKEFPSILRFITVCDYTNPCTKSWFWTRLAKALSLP

- Rank (after) [1]: 425
- Rank (before) [2]: 3599
Sequence: KARQFGALREEKLRAA

- P3_MyD88 Rank (after) [3]: 216
- P3_MyD88 Rank (before) [4]: 1602
Sequence: YLKWGYPRFWDRLRCA

- Population [5]: 0.00262%
Sequence: YGHESEIIKEIVDTIV

- P3_MyD88 Rank (after) [6]: 671
- P3_MyD88 Rank (before) [7]: 1858
Sequence: GSFREILLRLLDLSKK

- Population [5]: 0.00437%
Sequence: SSFCEGLWRLLELSKK

- Rank (after) [1]: 147
- Rank (before) [2]: 651
Sequence: EWIREQLRPALKAQ

- P3_MyD88 Rank (after) [3]: 212
- P3_MyD88 Rank (before) [4]: 3377
Sequence: NGHESENIKEIVDTIL

- P3_MyD88 Rank (after) [8]: 726
- P3_MyD88 Rank (before) [9]: 2442
Sequence: LKWGDPYLCSKLRYAM

- P8_MyD88 Rank (after) [8]: 767
- P8_MyD88 Rank (before) [9]: 3249
Sequence: LGYHWIDLGYFVGIED

- Rank (after) [10]: 462
- Rank (before) [11]: 3223
Sequence: LGYRWLDGEYFGGIED

- P8_MyD88 Rank (after) [8]: 731
- P8_MyD88 Rank (before) [9]: 2266
Sequence: VSHLSDSFERYGIMFF

- Rank (after) (P8_MyD88: rank by NGS read count after grouping): 1002
- Rank (before) (P8_MyD88: rank by NGS read count before grouping): 3572
Sequence: QLIGCGNTFFRWKKKIR

- P8_MyD88 Rank (after) [12]: 561
- P8_MyD88 Rank (before) [13]: 1431
Sequence: WALDELLQLQHARELF

- Rank (after) [1]: 150
- Rank (before) [2]: 3231
Sequence: SSFRKGLWRLLELLKK

- Rank (after) [10]: 450
- Rank (before) [11]: 1113
Sequence: DPQDLEWFYERLFSR

- Population [5]: 0.0032%
Sequence: YAFTGHLHRYLVQRAA

- Rank (after) [1]: 448
- Rank (before) [2]: 1482
Sequence: YAFTVHLHRYLVQRGG

- P8_MyD88 Rank (after) [6]: 641
- P8_MyD88 Rank (before) [7]: 2402
Sequence: DWVWVYLLPNLEGPEG

- P8_MyD88 Rank (after) [8]: 685
- P8_MyD88 Rank (before) [9]: 3567
Sequence: QDLEQFYERLVSLI

- P8_MyD88 Rank (after) [6]: 601
- P8_MyD88 Rank (before) [7]: 2624
Sequence: DPPVLEWFYESLFSQM

- P3_MyD88 Rank (after) [12]: 565
- P3_MyD88 Rank (before) [13]: 3262
Sequence: SSCREGLWSLLELSKK

- Rank (after) [1]: 179
- Rank (before) [2]: 2160
Sequence: EWIREQLRPELQERLP

- P8_MyD88 Rank (after) [3]: 233
- P8_MyD88 Rank (before) [4]: 716
Sequence: DPQDLDWFYERLVSL

- P8_MyD88 Rank (after) [8]: 690
- P8_MyD88 Rank (before) [9]: 3664
Sequence: MFGGDTFHDFLDLLA

- P3_MyD88 Rank (after) [3]: 239
- P3_MyD88 Rank (before) [4]: 2184
Sequence: EWSREQLRPALKESLP

- P3_MyD88 Rank (after) [12]: 543
- P3_MyD88 Rank (before) [13]: 1576
Sequence: YLKWGYRWYWDRLRFA

- Rank (after) [1]: 118
- Rank (before) [2]: 1545
Sequence: YAFTCHLQRYLVQRGV

- P3_MyD88 Rank (after) [3]: 221
- P3_MyD88 Rank (before) [4]: 3351
Sequence: NGHESEIITVIVDTIV

- P8_MyD88 Rank (after) [12]: 532
- P8_MyD88 Rank (before) [13]: 1401
Sequence: WALYELLHILHARELF

- P3_MyD88 Rank (after) [3]: 215
- P3_MyD88 Rank (before) [4]: 1210
Sequence: SSFREQLRPALKERLP

- P8_MyD88 Rank (after) [12]: 557
- P8_MyD88 Rank (before) [13]: 3027
Sequence: DPQTLQSFYERLVSLI

- P8_MyD88 Rank (after) [12]: 513
- P8_MyD88 Rank (before) [13]: 2472
Sequence: DWVWEHFVGIEDHIK

- P3_MyD88 Rank (after) [12]: 556
- P3_MyD88 Rank (before) [13]: 1436
Sequence: YYLDHSHPRKQNGEFG

- Population [5]: 0.00437%
Sequence: DHHLDLPRGKAIKLEILG

- Rank (after) [10]: 141
- Rank (before) [11]: 155
- Population [14]: 0.01%
Sequence: VRHTFAGYLYDALNRL

- P3_MyD88 Rank (after) [6]: 646
- P3_MyD88 Rank (before) [7]: 3408
Sequence: NELVHVWRSKANRLVG

- Population [14]: 0.02% and 0.0158%
Sequence: DPQELDWFYERLVSLF

- P8_MyD88 Rank (after) [8]: 750
- P8_MyD88 Rank (before) [9]: 3251
Sequence: LGYHWIDWAYSVGIED

- P3_MyD88 Rank (after) [3]: 281
- P3_MyD88 Rank (before) [4]: 3542
Sequence: NQQRFGGKVDAWKAAL

- Rank (after) [1]: 127
- Rank (before) [2]: 2450
Sequence: LKWGEPYCWSKLRYAM

- P3_MyD88 Rank (after) [6]: 635
- P3_MyD88 Rank (before) [7]: 2700
Sequence: PENDNGGENAFINHIV
